Test results reported in US20040002482A1, “Androgen pharmaceutical composition and method for treating depression” (priority 2000, published 2004).
Read-outs that look alike come from different tables or passages of the source.

Assays:
[1] = system: depression; conditions: cited from earlier work
[2] = system: major depressive disorder; assay: Eight-week randomized placebo-controlled depression trial of testosterone gel: HAM-D, CGI, BDI; assay type: in vivo, treatment-refractory depressed men
Procedure: Men age 30-65 years, presently taking an adequate dose of antidepressant medication (as defined by the manufacturer's published product information) for at least the last four weeks, but still complaining of depressive symptoms sufficient to meet DSM-IV criteria for current major depressive disorder. Subjects were initially screened. […] Subjects were then administered the depression module the Structured Clinical Interview for DSM-IV (SCID) to confirm the diagnosis of current major depressive disorder. Subjects were next administered the American Urological Association (AUA) Symptom Index for benign prostatic hyperplasia (B PH), subjects scoring higher than 14 on this index were excluded. Blood was then collected for total testosterone and PSA levels.
(§1) Next, the subjects were administered: 1) basic demographic questions; 2) the remainder of the SCID; 3) questions regarding history of previous antidepressant drug treatment; 4) the HAM-D; 5) the BDI; 6) the Clinical Global Impression Scale (CGI); 7) medical history questions; 8) physical examination, including vital signs, height, weight, and digital rectal examination of the prostate; 9) laboratory tests for standard chemistries, hematology, urinalysis, and HIV serology; 10) electrocardiogram (EKG); and 11) determination of body fat with calipers, together with calculation of fat-free mass index (FFMI), a measure of muscularity previously developed in our laboratory.
Qualifying subjects were then started on a one-week single-blind placebo washout with placebo gel. All subjects were asked to continue taking their existing antidepressant medications, together with any other medications that they were prescribed, at their present dose throughout the study.
Baseline (Week 0): Subjects were assessed for scores on the HAM-D, BDI, and CGI-Severity of Illness; adverse events; and vital signs. Results from the laboratory tests drawn at screen and from EKG readings were also reviewed. […] Drug and placebo were supplied in identical-appearing packets that contained either 2.5 g of AndroGel or a placebo gel.
Week 1: Subjects were assessed for scores on the HAM-D, BDI, and CGI (both Severity of Illness and Improvement as compared to Baseline); adverse events; and vital signs. Subjects provided blood for a total testosterone level, drawn at least four hours after the morning application of the gel.
(§2) Weeks 2, 4, 6, and 8: Subjects were assessed at weeks 2, 4,6 and 8 for HAM-D, BDI, CGI, adverse events, and vital signs. Week 8, subjects received an additional determination of PSA and measurement of weight and body fat. The blind was then broken and the correct identity of treatment assignment determined.
Statistical Analysis: Baseline characteristics of each group were compared using Fisher's exact test for categorical variables and the […] for continuous variables. Two populations of patients were defined: (1) an intent-to-treat group of patients with at least one available efficacy measure, and (2) a completers group, defined as patients who completed the 8-week treatment period.
The primary protocol-defined analysis of efficacy was a repeated measures random regression analysis comparing the rate of change of scores on the HAM-D, BDI, and CGI-severity during the treatment period between groups, using methods described by Diggle et al. and Gibbons et al. A model was used for the mean of the outcome variable that included terms for treatment, time, and treatment-by-time interaction. Time as a continuous variable was modeled, with weeks ranging from 0 (Baseline) to 8 (after randomization). The measure of effect was the treatment-by-time interaction (or the difference in the rate of change per unit of time, or the difference in slope with respect to time) of the efficacy measure. […]

[3] = system: body fat and muscle mass; assay: Depression trial: percent body fat and fat-free mass index (FFMI); assay type: in vivo, treatment-refractory depressed men; conditions: study completers; mean (SD); not significant vs placebo
Procedure: as §1, §2
For laboratory measures, including body fat and FFMI, the mean difference between endpoint and baseline measures were used, and then compared the treatment groups using the t-test. The correlation coefficients were calculated by using rank-transformed data (Spearman rank correlation). All statistical tests were two-sided with alpha=0.05.

[4] = system: body weight; conditions: patch delivering 150 ug/day; 12 weeks; cited from earlier work
[5] = system: impaired sexual function; conditions: cited from earlier work; for serum free testosterone concentration: mean ± SD
[6] = cited from earlier work
[7] = 10 grams of 1% gel daily added to existing antidepressant, 8 weeks
[8] = Completers, Week 8 as endpoint, N = 10
[9] = Intent to Treat, last observation carried forward, N = 11

Question: Which “mean HAM-D score” value ([1]; eight weeks, 400 mg every two weeks i.m. with SSRI, 19.2 at baseline, five men) does the source give for `CCCCCCC(=O)O[C@H]1CC[C@H]2[C@@H]3CCC4=CC(=O)CC[C@]4(C)[C@H]3CC[C@]12C` [testosterone enanthate] here?
Answer: 4.0

Question: What about the “subjects responding (50% or greater reduction in HAM-D)” value ([1]; randomized placebo-controlled trial, six weeks) of the same compound?
Answer: About 40%

Question: And the “HAM-D or BDI difference vs placebo” value ([1]; randomized placebo-controlled trial, six weeks, testosterone alone)?
Answer: no significant difference between testosterone and placebo

Question: For `C[C@]12CC[C@H]3[C@@H](CCC4=CC(=O)CC[C@@]43C)[C@@H]1CC[C@@H]2O` [testosterone], which “CGI-severity scores compared with placebo” value [2, 7] is on record?
Answer: significantly greater rates of decrease

Question: What about the “HAM-D scores compared with placebo” value [2, 7] of the same compound?
Answer: significantly greater rate of decrease

Question: What about the “BDI, Total Score: mean change from baseline to endpoint” value [2, 8] of the same compound?
Answer: −6.8

Question: What about the “CGI-Improvement (mean)” value [2, 8] of the same compound?
Answer: 2.9

Question: What about the “CGI-Severity: mean change from baseline to endpoint” value [2, 8] of the same compound?
Answer: −1.2

Question: And the “HAM-D, Affective Subscale: mean change from baseline to endpoint” value [2, 8]?
Answer: −2.7

Question: What about the “HAM-D, Total score: mean change from baseline to endpoint” value [2, 8] of the same compound?
Answer: −8.8

Question: What about the “HAM-D, Vegetative Subscale: mean change from baseline to endpoint” value [2, 8] of the same compound?
Answer: −3.5

Question: What about the “BDI, Total Score: mean change from baseline to endpoint” value [2, 9] of the same compound?
Answer: −5.5

Question: What about the “CGI-Improvement (mean)” value [2, 9] of the same compound?
Answer: 3.09

Question: What about the “CGI-Severity: mean change from baseline to endpoint” value [2, 9] of the same compound?
Answer: −0.9

Question: What about the “HAM-D, Affective Subscale: mean change from baseline to endpoint” value [2, 9] of the same compound?
Answer: −2.1

Question: And the “HAM-D, Total score: mean change from baseline to endpoint” value [2, 9]?
Answer: −7.4

Question: What about the “HAM-D, Vegetative Subscale: mean change from baseline to endpoint” value [2, 9] of the same compound?
Answer: −3.2

Question: And the “change in muscle mass as expressed by FFMI” value [3]?
Answer: 1.1 (0.9) kg/meter^2

Question: And the “change in percent body fat” value [3]?
Answer: −2.8 (1.7) %

Question: And the “increase in body weight” value [4]?
Answer: 4%

Question: What about the “serum free testosterone concentration” value ([5]; 160 μg per day (so in the source) transdermally) of the same compound?
Answer: 3.9 ± 2.4 pg/mL

Question: What about the “serum free testosterone concentration” value ([5]; 300 μg per day transdermally) of the same compound?
Answer: 4.9 ± 4.8 pg/mL

Question: And the “percentages of women with sexual fantasies, masturbation or intercourse at least once a week, increase from base line” value ([5]; 300 μg per day)?
Answer: two to three times

Question: What about the “bound to protein in the blood” value ([6]; in vivo) of the same compound?
Answer: 98%

Question: And the half-life ([6]; reported in the literature)?
Answer: 10 to 100 min
